# Literature values, collected in paper PMC9851200, “Multiparameter phenotypic screening for endogenous TFEB and TFE3 translocation identifies novel chemical series modulating lysosome function” (Autophagy, 2022).
# How the values were obtained:
# Parameters in all cases: method as in original PKIS2 published data
# [1] = target: kinases (KINOMEscan panel) (Homo sapiens, UniProt O96017); conditions: kinase CHEK2; Published KINOMEscan; ref original PKIS2 published data; cited from earlier work
# [2] = target: T1, kinases (KINOMEscan panel) (Homo sapiens, UniProt P51956); conditions: kinase NEK3; Published KINOMEscan; ref original PKIS2 published data; cited from earlier work
# T1 sequence (P51956 1-506): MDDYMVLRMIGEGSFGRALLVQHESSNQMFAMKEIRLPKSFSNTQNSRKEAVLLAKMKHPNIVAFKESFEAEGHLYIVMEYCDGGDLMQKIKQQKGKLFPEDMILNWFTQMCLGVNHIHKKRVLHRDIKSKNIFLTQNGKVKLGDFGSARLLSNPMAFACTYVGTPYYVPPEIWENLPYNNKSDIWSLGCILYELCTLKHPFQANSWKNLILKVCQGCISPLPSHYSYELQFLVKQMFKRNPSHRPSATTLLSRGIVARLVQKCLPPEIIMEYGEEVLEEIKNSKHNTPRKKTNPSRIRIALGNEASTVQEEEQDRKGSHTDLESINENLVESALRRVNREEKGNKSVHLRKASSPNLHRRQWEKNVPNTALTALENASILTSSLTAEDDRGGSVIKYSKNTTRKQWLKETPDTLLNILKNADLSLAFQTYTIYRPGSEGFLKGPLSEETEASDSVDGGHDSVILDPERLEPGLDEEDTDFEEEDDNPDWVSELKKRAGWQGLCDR
# [3] = target: T2, kinases (KINOMEscan panel) (Homo sapiens, UniProt P51813); conditions: BMX; Published KINOMEscan; ref original PKIS2 published data; cited from earlier work
# T2 sequence (P51813 1-675): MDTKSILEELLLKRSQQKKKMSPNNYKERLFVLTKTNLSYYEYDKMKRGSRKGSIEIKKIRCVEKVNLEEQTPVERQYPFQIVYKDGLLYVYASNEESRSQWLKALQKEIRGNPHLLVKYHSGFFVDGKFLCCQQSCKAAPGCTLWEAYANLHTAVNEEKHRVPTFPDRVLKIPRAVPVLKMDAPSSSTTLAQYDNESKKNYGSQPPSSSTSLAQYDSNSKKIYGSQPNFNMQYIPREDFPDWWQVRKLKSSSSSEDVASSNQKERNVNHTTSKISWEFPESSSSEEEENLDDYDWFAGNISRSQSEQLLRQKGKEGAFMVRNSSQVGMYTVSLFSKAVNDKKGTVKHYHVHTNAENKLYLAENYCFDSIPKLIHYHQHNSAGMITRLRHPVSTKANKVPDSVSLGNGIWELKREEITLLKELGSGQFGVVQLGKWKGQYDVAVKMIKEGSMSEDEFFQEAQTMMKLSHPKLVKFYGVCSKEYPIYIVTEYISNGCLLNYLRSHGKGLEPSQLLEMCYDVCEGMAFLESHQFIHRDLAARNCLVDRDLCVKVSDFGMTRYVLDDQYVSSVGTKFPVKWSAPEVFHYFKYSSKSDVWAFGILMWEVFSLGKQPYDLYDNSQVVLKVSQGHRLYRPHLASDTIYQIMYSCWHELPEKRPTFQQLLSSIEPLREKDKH
# [4] = target: T3, kinases (KINOMEscan panel) (Homo sapiens, UniProt Q14164); conditions: cited from earlier work
# T3 sequence (Q14164 1-716): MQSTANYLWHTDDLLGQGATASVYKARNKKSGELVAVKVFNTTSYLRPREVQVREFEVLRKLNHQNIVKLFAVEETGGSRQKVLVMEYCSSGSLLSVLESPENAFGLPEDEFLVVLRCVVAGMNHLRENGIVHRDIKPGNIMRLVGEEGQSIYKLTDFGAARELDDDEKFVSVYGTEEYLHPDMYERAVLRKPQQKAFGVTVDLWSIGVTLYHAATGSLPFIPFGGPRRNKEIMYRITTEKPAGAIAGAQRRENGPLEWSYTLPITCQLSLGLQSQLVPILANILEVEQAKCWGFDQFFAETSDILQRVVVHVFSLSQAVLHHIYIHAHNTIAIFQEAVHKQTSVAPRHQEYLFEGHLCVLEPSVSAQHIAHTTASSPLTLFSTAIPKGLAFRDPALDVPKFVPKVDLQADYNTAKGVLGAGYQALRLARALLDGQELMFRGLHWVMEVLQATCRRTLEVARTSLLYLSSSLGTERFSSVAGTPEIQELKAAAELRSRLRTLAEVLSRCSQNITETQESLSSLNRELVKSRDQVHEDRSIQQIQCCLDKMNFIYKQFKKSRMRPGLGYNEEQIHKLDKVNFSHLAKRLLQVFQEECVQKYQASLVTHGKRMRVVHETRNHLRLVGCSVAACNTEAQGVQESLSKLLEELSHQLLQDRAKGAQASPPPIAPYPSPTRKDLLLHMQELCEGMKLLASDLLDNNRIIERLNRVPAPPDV
# kinases (KINOMEscan panel) (Homo sapiens, UniProt O96017), sequence (O96017 whole entry): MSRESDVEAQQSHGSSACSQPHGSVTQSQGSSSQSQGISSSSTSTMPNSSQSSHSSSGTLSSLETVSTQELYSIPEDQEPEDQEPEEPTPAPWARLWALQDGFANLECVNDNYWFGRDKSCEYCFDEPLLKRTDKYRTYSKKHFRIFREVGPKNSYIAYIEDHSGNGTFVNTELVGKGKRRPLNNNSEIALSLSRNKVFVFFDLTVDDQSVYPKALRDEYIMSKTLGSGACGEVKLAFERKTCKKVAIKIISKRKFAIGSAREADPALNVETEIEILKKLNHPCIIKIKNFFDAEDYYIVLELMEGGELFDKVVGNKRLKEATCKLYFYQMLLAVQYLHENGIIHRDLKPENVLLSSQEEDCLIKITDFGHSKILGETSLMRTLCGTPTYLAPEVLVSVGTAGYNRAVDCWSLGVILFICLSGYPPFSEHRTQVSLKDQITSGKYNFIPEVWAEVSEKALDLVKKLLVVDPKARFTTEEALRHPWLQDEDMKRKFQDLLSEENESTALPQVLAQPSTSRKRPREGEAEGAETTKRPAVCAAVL
structure (smiles),measurement,setting,value
Cc1cccc(-c2nc(Nc3ccncc3)c3ccccc3n2)n1 [NK215],KINOMEscan CHEK2,[1],0
same,KINOMEscan NEK3,[2],30
same,KINOMEscan BMX,[3],6
same,KINOMEscan IKBKE/IKK-epsilon,[4],0
